Results published in patent US10405547B2, “Substituted cyclic amides as herbicides” (FMC Corporation, priority 2015, dated 2019).

Legend:
Type in all cases: in vivo
[1] = test system: blackgrass (Alopecurus myosuroides); assay: Test A postemergence, blackgrass; details: 0 to 100 scale (0 no effect, 100 complete control)
Outline: (§1)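 Ratings use a 0–100 scale, where 0 means no effect and 100 means complete control, and come from visual comparison with untreated plants roughly 10 days after treatment. Compounds were applied in a surfactant-containing, non-phytotoxic solvent, either to soil after seeding or to foliage of small seedlings.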

[2] = test system: wheat (Triticum aestivum); assay: Test A postemergence, wheat; details: 0 to 100 scale (0 no effect, 100 complete control)
Outline: as §1

[3] = test system: foxtail, giant (Setaria faberii); assay: Test A postemergence, giant foxtail; details: 0 to 100 scale (0 no effect, 100 complete control)
Outline: as §1

kochia (Kochia scoparia) [4] = assay: Test A preemergence, kochia; details: 0 to 100 scale (0 no effect, 100 complete control)
Outline: as §1

[5] = test system: ragweed (common ragweed, Ambrosia elatior); assay: Test A preemergence, ragweed; details: 0 to 100 scale (0 no effect, 100 complete control)
Outline: as §1

[6] = test system: ducksalad (Heteranthera limosa); assay: Test B flooded paddy test, ducksalad; details: 250 g ai/ha, applied to paddy water, visual rating after 13 to 15 days, scale 0 (no effect) to 100 (complete control)
Outline: (§2)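 Visual injury ratings against untreated controls, taken 13 to 15 days after compound was added to paddy water standing 3 cm above the soil.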

[7] = test system: pigweed (Amaranthus retroflexus); assay: Test A postemergence, pigweed; details: 0 to 100 scale (0 no effect, 100 complete control)
Outline: as §1

[8] = test system: ragweed (common ragweed, Ambrosia elatior); assay: Test A postemergence, ragweed; details: 0 to 100 scale (0 no effect, 100 complete control)
Outline: as §1

[9] = test system: ryegrass, Italian (Lolium multiflorum); assay: Test A preemergence, Italian ryegrass; details: 0 to 100 scale (0 no effect, 100 complete control)
Outline: as §1

[10] = test system: pigweed (Amaranthus retroflexus); assay: Test A preemergence, pigweed; details: 0 to 100 scale (0 no effect, 100 complete control)
Outline: as §1

kochia (Kochia scoparia) [11] = assay: Test A postemergence, kochia; details: 0 to 100 scale (0 no effect, 100 complete control)
Outline: as §1

[12] = test system: sedge, umbrella (small-flower umbrella sedge, Cyperus difformis); assay: Test B flooded paddy test, umbrella sedge; details: 250 g ai/ha, applied to paddy water, visual rating after 13 to 15 days, scale 0 (no effect) to 100 (complete control)
Outline: as §2

[13] = test system: barnyardgrass (Echinochloa crus-galli); assay: Test A preemergence, barnyardgrass; details: 0 to 100 scale (0 no effect, 100 complete control)
Outline: as §1

[14] = test system: galium (catchweed bedstraw, Galium aparine); assay: Test A postemergence, galium; details: 0 to 100 scale (0 no effect, 100 complete control)
Outline: as §1

rice (Oryza sativa) = assay: Test B flooded paddy test, rice; details: 250 g ai/ha, applied to paddy water, visual rating after 13 to 15 days, scale 0 (no effect) to 100 (complete control)
Outline: as §2

[15] = test system: barnyardgrass (Echinochloa crus-galli); assay: Test A postemergence, barnyardgrass; details: 0 to 100 scale (0 no effect, 100 complete control)
Outline: as §1

[16] = test system: ryegrass, Italian (Lolium multiflorum); assay: Test A postemergence, Italian ryegrass; details: 0 to 100 scale (0 no effect, 100 complete control)
Outline: as §1

[17] = test system: barnyardgrass (Echinochloa crus-galli); assay: Test B flooded paddy test, barnyardgrass; details: 250 g ai/ha, applied to paddy water, visual rating after 13 to 15 days, scale 0 (no effect) to 100 (complete control)
Outline: as §2

[18] = test system: foxtail, giant (Setaria faberii); assay: Test A preemergence, giant foxtail; details: 0 to 100 scale (0 no effect, 100 complete control)
Outline: as §1

corn (Zea mays) = assay: Test A postemergence, corn; details: 0 to 100 scale (0 no effect, 100 complete control)
Outline: as §1

[19] = 125 g ai/ha, visual injury, approximately 10 days
[20] = 500 g ai/ha, visual injury, approximately 10 days

| Structure (SMILES) | Plant response rating, Blackgrass [1, 19] | Plant response rating, Wheat [2, 19] | Plant response rating, Foxtail, Giant [3, 19] | Plant response rating, Kochia (kochia (Kochia scoparia) [4]; 125 g ai/ha) | Plant response rating, Ragweed ([5]; 125 g ai/ha) | Plant response rating, Ducksalad (Flood) [6] | Plant response rating, Pigweed [7, 19] | Plant response rating, Ragweed [8, 19] | Plant response rating, Ryegrass, Italian ([9]; 125 g ai/ha) | Plant response rating, Pigweed ([10]; 125 g ai/ha) | Plant response rating, Kochia (kochia (Kochia scoparia) [11]; [19]) | Plant response rating, Sedge, Umbrella (Flood) [12] | Plant response rating, Barnyardgrass ([13]; 125 g ai/ha) | Plant response rating, Galium [14, 19] | Plant response rating, Rice (Flood) (rice (Oryza sativa)) | Plant response rating, Barnyardgrass [15, 19] | Plant response rating, Ryegrass, Italian [16, 19] | Plant response rating, Barnyardgrass (Flood) [17] | Plant response rating, Foxtail, Giant ([18]; 125 g ai/ha) | Plant response rating, Corn (corn (Zea mays); [19]) | also measured |
| --- | --- | --- | --- | --- | --- | --- | --- | --- | --- | --- | --- | --- | --- | --- | --- | --- | --- | --- | --- | --- | --- |
| CN1CC(c2cccc(Sc3ccccc3)c2)C(C(=O)Nc2cccc(F)c2F)C1=O (single isomer, unassigned) [Compound 51] | 0 | 0 | 10 | 20 | 0 | 40 | 0 | 0 | 0 | 0 | 0 | 0 | 20 | 40 | 0 | 0 | 20 | 0 | 90 | 0 | Plant response rating, Blackgrass [1, 20]: 0; Plant response rating, Wheat [2, 20]: 20; Plant response rating, Foxtail, Giant [3, 20]: 40; Plant response rating, Kochia (kochia (Kochia scoparia) [4]; 500 g ai/ha): 50; Plant response rating, Ragweed ([5]; 500 g ai/ha): 0; Plant response rating, Pigweed [7, 20]: 0; Plant response rating, Ragweed [8, 20]: 20; Plant response rating, Ryegrass, Italian ([9]; 500 g ai/ha): 20; Plant response rating, Pigweed ([10]; 500 g ai/ha): 0; Plant response rating, Kochia (kochia (Kochia scoparia) [11]; [20]): 30; Plant response rating, Galium [14, 20]: 50; Plant response rating, Barnyardgrass [15, 20]: 30; Plant response rating, Ryegrass, Italian [16, 20]: 30; Plant response rating, Foxtail, Giant ([18]; 500 g ai/ha): 90; Plant response rating, Corn (corn (Zea mays); [20]): 30 |
| CN1CC(c2cccc(Oc3ccc(F)cn3)c2)C(C(=O)Nc2cccc(C#N)c2F)C1=O (single isomer, unassigned) [Compound 88] | 0 | 60 | 70 | 30 | 0 | 50 | 20 | 0 | 20 | 20 | 30 | 0 | 30 | 40 | 0 | 80 | 0 | 0 | 90 | 20 | Plant response rating, Blackgrass ([1]; 31 g ai/ha): 0; Plant response rating, Wheat ([2]; 31 g ai/ha): 0; Plant response rating, Foxtail, Giant ([3]; 31 g ai/ha): 30; Plant response rating, Kochia (kochia (Kochia scoparia) [4]; 31 g ai/ha): 0; Plant response rating, Ragweed ([5]; 31 g ai/ha): 0; Plant response rating, Pigweed ([7]; 31 g ai/ha): 0; Plant response rating, Ragweed ([8]; 31 g ai/ha): 0; Plant response rating, Ryegrass, Italian ([9]; 31 g ai/ha): 0; Plant response rating, Pigweed ([10]; 31 g ai/ha): 0; Plant response rating, Kochia (kochia (Kochia scoparia) [11]; 31 g ai/ha): 0; Plant response rating, Barnyardgrass ([13]; 31 g ai/ha): 0; Plant response rating, Galium ([14]; 31 g ai/ha): 30; Plant response rating, Barnyardgrass ([15]; 31 g ai/ha): 30; Plant response rating, Ryegrass, Italian ([16]; 31 g ai/ha): 0; Plant response rating, Foxtail, Giant ([18]; 31 g ai/ha): 30; Plant response rating, Corn (corn (Zea mays); 31 g ai/ha): 0 |
| CN1CC(c2cccc(Oc3ccc(F)cn3)c2)C(C(=O)Nc2cccc(F)c2C#N)C1=O (single isomer, unassigned) [Compound 89] | 20 | 0 | 70 | 0 | 0 | 70 | 50 | 0 | 40 | 60 | 0 | 0 | 70 | 40 | 0 | 70 | 20 | 0 | 90 | 0 | Plant response rating, Blackgrass ([1]; 31 g ai/ha): 0; Plant response rating, Wheat ([2]; 31 g ai/ha): 0; Plant response rating, Foxtail, Giant ([3]; 31 g ai/ha): 30; Plant response rating, Kochia (kochia (Kochia scoparia) [4]; 31 g ai/ha): 0; Plant response rating, Ragweed ([5]; 31 g ai/ha): 0; Plant response rating, Pigweed ([7]; 31 g ai/ha): 0; Plant response rating, Ragweed ([8]; 31 g ai/ha): 0; Plant response rating, Ryegrass, Italian ([9]; 31 g ai/ha): 0; Plant response rating, Pigweed ([10]; 31 g ai/ha): 0; Plant response rating, Kochia (kochia (Kochia scoparia) [11]; 31 g ai/ha): 0; Plant response rating, Barnyardgrass ([13]; 31 g ai/ha): 30; Plant response rating, Galium ([14]; 31 g ai/ha): 30; Plant response rating, Barnyardgrass ([15]; 31 g ai/ha): 30; Plant response rating, Ryegrass, Italian ([16]; 31 g ai/ha): 0; Plant response rating, Foxtail, Giant ([18]; 31 g ai/ha): 40; Plant response rating, Corn (corn (Zea mays); 31 g ai/ha): 0 |
